Source: patent US10681909B2, “Herbicidal triazoles” (FMC Corporation, priority 2014, dated 2020)

Key:
galium = assay: Test C preemergence; type: in vivo, Galium aparine; settings: for Plant response rating (scale of 0 to 100 where 0 is no effect and 100 is complete control): Galium, preemergence; for Galium plant response rating (0 to 100): Preemergence, visual rating after 13 to 15 d
Excerpt: (§1) Seeds of plant species selected from blackgrass (Alopecurus myosuroides), ryegrass, Italian (Italian ryegrass, Lolium multiflorum), wheat (winter wheat, Triticum aestivum), galium (catchweed bedstraw, Galium aparine), corn (Zea mays), crabgrass, large (large crabgrass, Digitaria sanguinalis), foxtail, giant, (giant foxtail, Setaria faberii), johnsongrass (Sorghum halepense), lambsquarters (Chenopodium album), morningglory (Ipomoea coccinea), nutsedge, yellow (yellow nutsedge, Cyperus esculentus), pigweed (Amaranthus retroflexus), ragweed (common ragweed, Ambrosia elatior), soybean (Glycine max), barnyardgrass (Echinochloa crus-galli), oilseed rape (Brassica napus), waterhemp (common waterhemp, Amaranthus rudis), and velvetleaf (Abutilon theophrasti) were planted into a blend of loam soil and sand and treated preemergence with test chemicals formulated in a non-phytotoxic solvent mixture which included a surfactant. At the same time, plants selected from these crop and weed species and also chickweed (common chickweed, Stellaria media), oat, wild (wild oat, Avena fatua), and kochia (Kochia scoparia), were planted in pots containing Sunshine Redi-Earth® planting medium comprising spaghnum peat moss, vermiculite, starter nutrients and dolomitic limestone and treated with postemergence applications of test chemicals formulated in the same manner. Plants ranged in height from 2 to 18 cm (1- to 4-leaf stage) for postemergence treatments. […] A dash (-) response means no test result.

foxtail, giant = assay: Test C preemergence; type: in vivo, Setaria faberii; settings: for Plant response rating (scale of 0 to 100 where 0 is no effect and 100 is complete control): Foxtail, Giant, preemergence; for Foxtail, Giant plant response rating (0 to 100): Preemergence, visual rating after 13 to 15 d
Excerpt: as §1

ragweed = assay: Test C preemergence; type: in vivo, Ambrosia elatior; settings: for Ragweed plant response rating (0 to 100): Preemergence, visual rating after 13 to 15 d; for Plant response rating (scale of 0 to 100 where 0 is no effect and 100 is complete control): Ragweed, preemergence
Excerpt: as §1

oilseed rape = assay: Test C preemergence; type: in vivo, Brassica napus; settings: for Plant response rating (scale of 0 to 100 where 0 is no effect and 100 is complete control): Oilseed Rape, preemergence; for Oilseed Rape plant response rating (0 to 100): Preemergence, visual rating after 13 to 15 d
Excerpt: as §1

kochia = assay: Test D preemergence; type: in vivo, Kochia scoparia; settings: for Plant response rating: Kochia: scale 0 to 100
Excerpt: (§2) Seeds of plant species selected from bluegrass (annual bluegrass, Poa annua), blackgrass (Alopecurus myosuroides), canarygrass (Phalaris minor), chickweed (common chickweed, Stellaria media), galium (catchweed bedstraw, Galium aparine), bromegrass, down (downy bromegrass, Bromus tectorum), Russian thistle (Salsola kali), field poppy (Papaver rhoeas), field violet (Viola arvensis), foxtail, green (green foxtail, Setaria viridis), deadnettle (henbit deadnettle, Lamium amplexicaule), ryegrass, Ital. (Italian ryegrass, Lolium multiflorum), kochia (Kochia scoparia), lambsquarters (Chenopodium album), oilseed rape (Brassica napus), pigweed (Amaranthus retroflexus), chamomile (scentless chamomile, Matricaria inodora), speedwell (bird's-eye speedwell, Veronica persica), barley, spring (spring barley, Hordeum vulgare), wheat, spring (spring wheat, Triticum aestivum), buckwheat, wild (wild buckwheat, Polygonum convolvulus), wild mustard (Sinapis arvensis), oat, wild (wild oat, Avena fatua), radish, wild (wild radish, Raphanus raphanistrum), […]), barley, winter (winter barley, Hordeum vulgare), and wheat, winter (winter wheat, Triticum aestivum) were planted into a silt loam soil and treated preemergence with test chemicals formulated in a non-phytotoxic solvent mixture which included a surfactant. At the same time, these species were planted in pots containing Sunshine Redi-Earth® planting medium comprising spaghnum peat moss, vermiculite, starter nutrients and dolomitic limestone and treated with postemergence applications of the test chemicals formulated in the same manner. Plants ranged in height from 2 to 18 cm (1- to 4-leaf stage). Treated plants and controls were maintained in a controlled growth environment for 14 to 21 d after which time all species were compared to controls and visually evaluated. […] A dash (-) response means no test result.

barley, spring = assay: Test D preemergence; type: in vivo, Hordeum vulgare; settings: for Plant response rating: Barley, Spring: scale 0 to 100
Excerpt: as §2

barley, winter = assay: Test D preemergence; type: in vivo, Hordeum vulgare; settings: for Plant response rating: Barley, Winter: scale 0 to 100
Excerpt: as §2

wild mustard = assay: Test D preemergence; type: in vivo, Sinapis arvensis; settings: for Plant response rating: Mustard, Wild: scale 0 to 100
Excerpt: as §2

ryegrass, Ital. = assay: Test D postemergence; type: in vivo, Lolium multiflorum; settings: scale 0 to 100
Excerpt: as §2

lambsquarters = assay: Test D postemergence; type: in vivo, Chenopodium album; settings: scale 0 to 100
Excerpt: as §2

buckwheat, wild = assay: Test D postemergence; type: in vivo, Polygonum convolvulus; settings: scale 0 to 100
Excerpt: as §2

windgrass = assay: Test D postemergence; type: in vivo, Apera spica-venti; settings: scale 0 to 100
Excerpt: as §2

[1] = 16 g ai/ha, 0 is no effect, 100 is complete control

CCOc1nc(-c2ccccc2)nn1Cc1ccnc(C(F)(F)F)c1 [Compound 27]
Plant response rating (scale of 0 to 100 where 0 is no effect and 100 is complete control) (galium; 125 g ai/ha): 95
Plant response rating (scale of 0 to 100 where 0 is no effect and 100 is complete control) (galium; 250 g ai/ha): 95
Galium plant response rating (0 to 100) (galium; 31 g ai/ha): 90
Galium plant response rating (0 to 100) (galium; 62 g ai/ha): 95
Plant response rating (scale of 0 to 100 where 0 is no effect and 100 is complete control) (foxtail, giant; 125 g ai/ha): 100
Plant response rating (scale of 0 to 100 where 0 is no effect and 100 is complete control) (foxtail, giant; 250 g ai/ha): 100
Foxtail, Giant plant response rating (0 to 100) (foxtail, giant; 31 g ai/ha): 100
Foxtail, Giant plant response rating (0 to 100) (foxtail, giant; 62 g ai/ha): 100
Ragweed plant response rating (0 to 100) (ragweed; 31 g ai/ha): 50
Ragweed plant response rating (0 to 100) (ragweed; 62 g ai/ha): 50
Plant response rating (scale of 0 to 100 where 0 is no effect and 100 is complete control) (ragweed; 125 g ai/ha): 98
Plant response rating (scale of 0 to 100 where 0 is no effect and 100 is complete control) (ragweed; 250 g ai/ha): 98
Plant response rating (scale of 0 to 100 where 0 is no effect and 100 is complete control) (oilseed rape; 125 g ai/ha): 100
Plant response rating (scale of 0 to 100 where 0 is no effect and 100 is complete control) (oilseed rape; 250 g ai/ha): 100
Oilseed Rape plant response rating (0 to 100) (oilseed rape; 31 g ai/ha): 90
Oilseed Rape plant response rating (0 to 100) (oilseed rape; 62 g ai/ha): 90
Plant response rating (0 to 100), Kochia (kochia; [1]): 85
Plant response rating: Kochia (kochia; 62 g ai/ha): 95
Plant response rating: Kochia (kochia; 125 g ai/ha): 100
Plant response rating (0 to 100), Barley, Spring (barley, spring; [1]): 25
Plant response rating: Barley, Spring (barley, spring; 31 g ai/ha): 25
Plant response rating: Barley, Spring (barley, spring; 62 g ai/ha): 35
Plant response rating: Barley, Spring (barley, spring; 125 g ai/ha): 35
Plant response rating (0 to 100), Barley, Winter (barley, winter; [1]): 15
Plant response rating: Barley, Winter (barley, winter; 31 g ai/ha): 25
Plant response rating: Barley, Winter (barley, winter; 62 g ai/ha): 30
Plant response rating: Barley, Winter (barley, winter; 125 g ai/ha): 35
Plant response rating (0 to 100), Mustard, Wild (wild mustard; [1]): 80
Plant response rating: Mustard, Wild (wild mustard; 62 g ai/ha): 100
Plant response rating: Mustard, Wild (wild mustard; 125 g ai/ha): 100
Plant response rating: Ryegrass, Ital. (ryegrass, Ital.; 16 g ai/ha): 15
Plant response rating: Ryegrass, Ital. (ryegrass, Ital.; 31 g ai/ha): 20
Plant response rating: Ryegrass, Ital. (ryegrass, Ital.; 62 g ai/ha): 35
Plant response rating: Ryegrass, Ital. (ryegrass, Ital.; 125 g ai/ha): 60
Plant response rating: Lambsquarters (lambsquarters; 16 g ai/ha): 85
Plant response rating: Lambsquarters (lambsquarters; 31 g ai/ha): 95
Plant response rating: Lambsquarters (lambsquarters; 62 g ai/ha): 95
Plant response rating: Lambsquarters (lambsquarters; 125 g ai/ha): 95
Plant response rating: Buckwheat, Wild (buckwheat, wild; 16 g ai/ha): 65
Plant response rating: Buckwheat, Wild (buckwheat, wild; 31 g ai/ha): 80
Plant response rating: Buckwheat, Wild (buckwheat, wild; 62 g ai/ha): 70
Plant response rating: Buckwheat, Wild (buckwheat, wild; 125 g ai/ha): 85
Plant response rating: Windgrass (windgrass; 16 g ai/ha): 60
Plant response rating: Windgrass (windgrass; 31 g ai/ha): 65
Plant response rating: Windgrass (windgrass; 62 g ai/ha): 70
Plant response rating: Windgrass (windgrass; 125 g ai/ha): 70
